According to patent publication US20050281850A1, “Cosmetic/dermatological inverse emulsions containing calcitriol and clobetasol 17-propionate” (GALDERMA S.A., priority 2004, published 2005):

Tests used:
Type in all cases: physicochemical
[1] = Stability of calcitriol in Cetiol SN (HPLC assay against reference substance); conditions: for Calcitriol concentration measured as % relative to T0: 30 ppm in Cetiol SN, 0.4% BHT
From the text: (§1) c) Stability of Calcitriol in Cetiol SN (Cetearyl Isononanoate): 30 ppm solution of calcitriol in qs 100% Cetiol SN (cetearyl isononanoate) in the presence of 0.4% BHT. HPLC assay technique against reference substance. At the initial time (T0), it is considered that the composition comprises 100% calcitriol. Calcitriol concentration measured as % relative to T0: […]

[2] = Stability of calcitriol in Miglyol 812 (HPLC assay against reference substance); conditions: for Calcitriol concentration measured as % relative to T0: 30 ppm in Miglyol 812, 0.4% BHT
From the text: as §1, with “b)” for “c)”, “Miglyol 812 (Caprylic/-15 Capric Triglycerides)” for “Cetiol SN (Cetearyl Isononanoate):”, “Miglyol 812” for “Cetiol SN (cetearyl isononanoate)”

[3] = Stability of calcitriol in ethanol (HPLC assay against reference substance); conditions: 30 ppm in absolute ethanol, 0.02% BHT
From the text: as §1, with “a)” for “c)”, “Ethanol:” for “Cetiol SN (Cetearyl Isononanoate):”, “of absolute ethanol” for “Cetiol SN (cetearyl isononanoate)”, “0.02%” for “0.4%”

Structure (SMILES): C=C1/C(=C\C=C2/CCC[C@]3(C)[C@@H]([C@H](C)CCCC(C)(C)O)CC[C@@H]23)C[C@@H](O)C[C@@H]1O [calcitriol]
- Calcitriol concentration measured as % relative to T0 ([1]; +4° C., T2 weeks): 98.6%
- Calcitriol concentration measured as % relative to T0 ([1]; +4° C., T4 weeks): 98.1%
- Calcitriol concentration measured as % relative to T0 ([1]; +40° C., T2 weeks): 99.0%
- Calcitriol concentration measured as % relative to T0 ([1]; +40° C., T4 weeks): 98.9%
- Calcitriol concentration measured as % relative to T0 ([1]; RT, T2 weeks): 98.7%
- Calcitriol concentration measured as % relative to T0 ([1]; RT, T4 weeks): 98.4%
- Stability of calcitriol in Cetiol SN (in words) ([1]; in Cetiol SN): good stability
- Calcitriol concentration measured as % relative to T0 ([2]; +4° C., T2 weeks): 98.3%
- Calcitriol concentration measured as % relative to T0 ([2]; +4° C., T4 weeks): 105.2%
- Calcitriol concentration measured as % relative to T0 ([2]; +40° C., T2 weeks): 91%
- Calcitriol concentration measured as % relative to T0 ([2]; +40° C., T4 weeks): 93.8%
- Calcitriol concentration measured as % relative to T0 ([2]; RT, T2 weeks): 95.1%
- Calcitriol concentration measured as % relative to T0 ([2]; RT, T4 weeks): 98.0%
- Stability of calcitriol in Miglyol 812 (in words) ([2]; in Miglyol 812): good stability
- Calcitriol concentration measured as % relative to T0 ([3]; +4° C., T1 week): 97.7%
- Calcitriol concentration measured as % relative to T0 ([3]; +4° C., T2 weeks): 98.6%
- Calcitriol concentration measured as % relative to T0 ([3]; +4° C., T3 weeks): 98.1%
- Calcitriol concentration measured as % relative to T0 ([3]; +4° C., T4 weeks): 97.7%
- Calcitriol concentration measured as % relative to T0 ([3]; +30° C., T2 weeks): 93.4%
- Calcitriol concentration measured as % relative to T0 ([3]; +30° C., T4 weeks): 93.0%
- Calcitriol concentration measured as % relative to T0 ([3]; −18° C., T1 week): 100.9%
- Calcitriol concentration measured as % relative to T0 ([3]; −18° C., T2 weeks): 100.5%
- Calcitriol concentration measured as % relative to T0 ([3]; −18° C., T3 weeks): 99.5%
- Calcitriol concentration measured as % relative to T0 ([3]; −18° C., T4 weeks): 99.5%
